molecular target: T1, Human immunodeficiency virus type 1 reverse transcriptase (Human immunodeficiency virus 1, UniProt Q72547); assay: Compound was evaluated for inhibition of HIV-1 reverse transcriptase using rC.dG and [3H]dGTP as substrates at 100 ug/mL

SMILES | IC50 [µM]
O=C(CCCCCCC(=O)Nc1ccc(Br)cc1C(=O)O)Nc1ccc(Br)cc1C(=O)O | 18

molecular target: T1, Human immunodeficiency virus type 1 reverse transcriptase; assay: Compound was evaluated for inhibition of HIV-1 reverse transcriptase using rC.dG and [3H]dGTP as substrates at 100 ug/ml

SMILES | IC50 [µM]
CC(=O)Nc1ccc(NC(=O)CCCCC(=O)Nc2ccc(NC(C)=O)cc2C(=O)O)c(C(=O)O)c1 | > 100

molecular target: T1, Human immunodeficiency virus type 1 reverse transcriptase; assay: Evaluated for inhibition of HIV-1 reverse transcriptase; Inactive means <50% inhibition at 100 ug/mL concentration

SMILES | IC50
CN(CC(=O)Nc1ccc(Br)cc1C(=O)O)CC(=O)Nc1ccc(Br)cc1C(=O)O | Not Active
O=C(Cc1cccc(CC(=O)Nc2ccc(Br)cc2C(=O)O)c1)Nc1ccc(Br)cc1C(=O)O | Not Active
O=C(Nc1ccc(Br)cc1C(=O)O)c1cccc(C(=O)Nc2ccc(Br)cc2C(=O)O)n1 | Not Active
O=C(Nc1ccc(Br)cc1C(=O)O)c1cncc(C(=O)Nc2ccc(Br)cc2C(=O)O)c1 | Not Active
O=C(CCCCC(=O)Nc1ccc(Br)cc1)Nc1ccccc1 | Not Active
O=C(CCCCC(=O)Nc1ccccc1C(=O)O)Nc1ccc(Br)cc1 | Not Active
O=C(CCCCC(=O)Nc1ccccc1C(=O)O)Nc1ccccc1 | Not Active
O=C(COCC(=O)Nc1ccc(Br)cc1C(=O)O)Nc1ccc(Br)cc1C(=O)O | Not Active
O=C(CCCCC(=O)Nc1ccc(Br)cc1C(=O)O)Nc1ccccc1 | Not Active

molecular target: T1, Human immunodeficiency virus type 1 reverse transcriptase; assay: Evaluated for inhibition of HIV-1 reverse transcriptase

SMILES | IC50 [µM]
O=C(CCCCC(=O)Nc1ccc(Br)cc1C(=O)O)Nc1ccc(Br)cc1 | 15
O=C(CCCCC(=O)Nc1ccccc1C(=O)O)Nc1ccccc1C(=O)O | 21
O=C(CCCCC(=O)Nc1ccc(F)cc1C(=O)O)Nc1ccc(F)cc1C(=O)O | > 120
O=C(Nc1ccc(Br)cc1C(=O)O)c1ccnc(C(=O)Nc2ccc(Br)cc2C(=O)O)c1 | 66
O=C(CCCC(=O)Nc1ccc(Cl)cc1C(=O)O)Nc1ccc(Cl)cc1C(=O)O | 8.7
O=C(CCCCC(=O)Nc1ccc(Br)cc1C(=O)O)Nc1ccc(Br)cc1C(=O)O | 3.1
O=C(CCCCCC(=O)Nc1ccc(Cl)cc1C(=O)O)Nc1ccc(Cl)cc1C(=O)O | 9
COc1ccc(NC(=O)CCCCC(=O)Nc2ccc(OC)cc2C(=O)O)c(C(=O)O)c1 | 10.6
O=C(Nc1ccc(Br)cc1C(=O)O)c1ccc(C(=O)Nc2ccc(Br)cc2C(=O)O)nc1 | 35
O=C(CCCCC(=O)Nc1ccc(Cl)cc1C(=O)O)Nc1ccc(Cl)cc1C(=O)O | 8.7
Cc1ccc(NC(=O)CCCCC(=O)Nc2ccc(C)cc2C(=O)O)c(C(=O)O)c1 | 14
N#Cc1ccc(NC(=O)CCCCC(=O)Nc2ccc(C#N)cc2C(=O)O)c(C(=O)O)c1 | > 100
CSc1ccc(NC(=O)CCCCC(=O)Nc2ccc(SC)cc2C(=O)O)c(C(=O)O)c1 | 19

Reference: ChEMBL document CHEMBL1130588, “Biaryl acids: novel non-nucleoside inhibitors of HIV reverse transcriptase types 1 and 2” (Bioorg Med Chem Lett, 1998)
